According to patent publication US11452682B2, “Toothpaste composition for alleviating dentin hyperesthesia” (HYSENSBIO, priority 2018, dated 2022):

Tested on: DSPP gene
Assay: mRNA level of DSPP gene in MDPC-23 cells by RT-PCR and real-time PCR
Format: cell-based, mouse
Conditions: cultured 48 hours with peptide, relative ratio to mRNA level in untreated control, Gapdh internal control, repeated three times
Method: The MDPC-23 cells cultured in Example 2-1 were treated with the peptides of each group synthesized in Example 1, then cultured for 48 hours. The mRNA level of the DSPP, an odontoblast differentiation marker gene, expressed in the MDPC-23 cells were measured, and the measured mRNA level of each DSPP gene was converted into a relative ratio to the mRNA level of the DSPP gene measured in control (Tables 13 to 24). In addition, the average value of the mRNA level of the DSPP gene measured according to the peptides of each group was compared (FIG. 1B). At this time, as a control, MDPC-23 cells that were not treated with the peptide promoting differentiation of odontoblast were used.
The expression level of the DSPP gene was measured through RT-PCR and real-time PCR analysis: Specifically, total RNA was extracted from the MDPC-23 cells using TRIzol reagent. 2 μg of the total RNA, 1 μl of reverse transcriptase, and 0.5 μg of oligo (oligo; dT) were used to synthesize cDNA. The synthesized cDNA was used in a real-time polymerase chain reaction. The real-time polymerase chain reaction was performed on an ABI PRISM 7500 sequence detection system (Applied Biosystems) and an SYBR GREEN PCR Master Mix (Takara, Japan). The real-time polymerase chain reaction was performed under conditions of 94° C., 1 min; 95° C., 15 sec; 60° C., 34 sec for 40 cycles. Results were analyzed by a comparative cycle threshold (CT) method. At this time, the Gapdh gene was used as the internal control group, and the measured value was repeated three times. The mean value and standard deviation value thereof were used.

Substance	mRNA level of Dspp gene Mean
89 (KYKQRKKSYK; Novel peptide) [compound 89]	4.211
90 (KYKQRKRSYK; Novel peptide) [compound 90]	4.811
91 (KYKQRRKSYK; Novel peptide) [compound 91]	4.362
92 (KYKQRRRSYK; Novel peptide) [compound 92]	4.211
93 (KYKQKKKSYK; Novel peptide) [compound 93]	4.525
94 (KYKQKRKSYK; Novel peptide) [compound 94]	3.836
95 (KYKQKKRSYK; Novel peptide) [compound 95]	4.62
96 (KYKQKRRSYK; Novel peptide) [compound 96]	5.211
